Here are results for one compound from article PMC10734441, “Comparative biodegradation analysis of three compostable polyesters by a marine microbial community” (Applied and Environmental Microbiology, 2023).

As usually defined, the Km is the substrate concentration at which the rate is half of its maximum.

Each structure is given as a SMILES string.

Common to all, as to assay: 4-nitrophenol release, absorbance at […] nm, nonlinear regression
What all share (assay type): biochemical, Pseudomonas sp. (bin 31)
Holding throughout (details): phosphate-buffered saline pH 7.4; 20°C (methods: room temperature); 0.1-2.4 mM substrate

The subject of one assay is T1, Ple-tan1.
T1 construct: codon-optimized synthetic gene in pCold II, E. coli Origami (DE3), His-tag purified plus size exclusion

For the next assay, the system named is T2, Ple-tan2.
T2 construct: codon-optimized synthetic gene in pCold II, E. coli Origami (DE3), His-tag purified

The subject of a further assay is T3, Ple-solo.
T3 construct: codon-optimized synthetic gene in pCold II, E. coli Origami (DE3), His-tag purified plus size exclusion

For `CCCC(=O)Oc1ccc([N+](=O)[O-])cc1` [para-nitrophenyl butyrate], the Michaelis constant (Km) with Ple-tan1 was 454 ± 54 µM; with Ple-tan2, 1420 ± 94 µM; with Ple-solo it was 254 ± 55 µM.
